# Laboratory results as given in patent US7101878B1 (Agouron Pharmaceuticals, Inc., priority 1998, dated 2006).
# Key:
# rat GnRH receptor = target: T1, rat GnRH receptor (Rattus norvegicus, UniProt P30969); experiment: Radioligand binding, 125I-GnRH-A, rat pituitary membranes; parameters: membranes were prepared from rat pituitary; from tissue; host or cells: rat pituitary; conditions: read-out: rGnRH IC50
# T1 sequence (P30969 1-327): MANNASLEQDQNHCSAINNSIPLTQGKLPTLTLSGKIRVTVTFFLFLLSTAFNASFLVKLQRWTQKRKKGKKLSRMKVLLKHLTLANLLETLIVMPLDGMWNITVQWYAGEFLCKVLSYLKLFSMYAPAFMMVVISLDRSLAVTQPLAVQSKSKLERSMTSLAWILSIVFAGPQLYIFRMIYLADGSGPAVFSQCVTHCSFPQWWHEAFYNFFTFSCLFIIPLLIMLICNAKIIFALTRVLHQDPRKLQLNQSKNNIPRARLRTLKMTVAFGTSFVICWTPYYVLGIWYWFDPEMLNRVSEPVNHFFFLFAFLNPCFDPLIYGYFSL
# Procedure: All compounds were diluted in 1% DMSO (final assay concentration) in binding assay buffer. […] Reactions were terminated by rapid filtration onto 96-well Packard GF/C filters soaked in 0.1% polyethyleneimine. Filters were washed three times with PBS buffer, dried and counted on a Packard Topcount by liquid scintillation counting.
# Assay conditions were identical for assessing compound activities at other species. […] IC50 values for control peptides and test compounds were calculated utilizing GraphPad Prism™ software.
# The reaction mixture was vortexed and incubated for 1 min at room temperature. After one min, the mixture was vortexed and allowed to incubate for an additional minute. 2 ml of 0.5 M acetic acid/1% BSA was added to the reaction tube and the mixture was added to a C18 Sep-Pak cartridge. The cartridge was washed with subsequent washes of 5 ml H2O and 5 ml 0.5M acetic acid and then eluted with 5×1 ml of 60% CH3CN/40% 0.5M acetic acid. The eluate was diluted with 3× volume of HPLC buffer A (0.1% TFA in H2O) and loaded onto a C18 column. […] The radioactive fractions (750 ed/fraction) are collected into clean polypropylene tubes containing 100 μl of 10% BSA. Fractions were assessed for biological activity by radioligand binding.
# mouse GnRH receptor = target: T2, mouse GnRH receptor (Mus musculus, UniProt Q01776); experiment: Radioligand binding, 125I-GnRH-A, 293 cells expressing mouse GnRH receptors; conditions: read-out: mGnRH IC50
# T2 construct: expressed in transfected cells; host or cells: 293 cells
# T2 sequence (Q01776 1-327): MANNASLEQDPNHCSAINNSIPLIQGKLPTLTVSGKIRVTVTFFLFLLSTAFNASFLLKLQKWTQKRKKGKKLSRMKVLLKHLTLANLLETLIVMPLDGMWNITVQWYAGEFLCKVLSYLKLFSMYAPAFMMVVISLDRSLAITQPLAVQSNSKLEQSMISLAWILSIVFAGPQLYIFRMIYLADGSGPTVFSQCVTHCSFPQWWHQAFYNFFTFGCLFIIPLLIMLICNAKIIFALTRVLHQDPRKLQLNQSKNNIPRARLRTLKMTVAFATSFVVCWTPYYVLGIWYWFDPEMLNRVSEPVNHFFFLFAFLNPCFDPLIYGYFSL
# Summary of the method: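 Bound label captured on 0.1% polyethyleneimine-treated GF/C filters, washed three times with PBS, counted. IC50 derived; identical set-up for every species.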
# human GnRH receptor = target: T3, human GnRH receptor (Homo sapiens, UniProt P30968); experiment: Radioligand binding, 125I-GnRH-A displacement, membranes of HEK 293 cells with human GnRH receptor; conditions: read-out: hGnRH IC50
# T3 construct: expressed in transfected cells; host or cells: HEK 293 (hGnRH-R/293, from Dr. Stuart Sealfon)
# T3 sequence (P30968 1-328): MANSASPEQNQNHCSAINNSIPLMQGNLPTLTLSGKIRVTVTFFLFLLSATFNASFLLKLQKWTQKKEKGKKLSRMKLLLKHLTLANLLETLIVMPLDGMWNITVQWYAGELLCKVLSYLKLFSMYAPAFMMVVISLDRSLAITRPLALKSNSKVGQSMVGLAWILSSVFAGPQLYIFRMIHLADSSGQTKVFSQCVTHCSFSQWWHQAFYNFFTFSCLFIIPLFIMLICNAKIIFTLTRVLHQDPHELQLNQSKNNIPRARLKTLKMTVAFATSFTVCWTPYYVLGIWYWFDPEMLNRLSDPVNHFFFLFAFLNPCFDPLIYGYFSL
# Summary of the method: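 Bound tracer was separated by filtration through polyethyleneimine-soaked GF/C filters and counted by liquid scintillation. IC50 from curve fitting; other species were tested under the same conditions.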
# [1] = Pharmacokinetic studies / bioavailability in rats; type: in vivo, rat
# [2] = female, rat, plasma, po, 10 mg/kg, rat female, p.o. 10 mg/kg, 5 mg/ml solution in 10% DMSO 10% cremophor 80% saline
SMILES,IC50 (rat GnRH receptor),IC50 (mouse GnRH receptor),IC50 (human GnRH receptor),"Fp.o. ([1]; rat male, p.o. 20 mg/kg, vehicle per footnote (DMSO/cremophor/saline))","Cmax [1, 2]","Tmax [1, 2]","half-life ([1]; female, rat, plasma, rat female)","Fp.o. ([1]; rat female, 5 mg/ml solution in 10% DMSO 10% cremophor 80% saline)"
COc1cc(OC)c(C(C)=O)cc1NC(=O)c1ccc(Cc2cc3c(cc2C)C(C)(C)CCC3(C)C)o1 [Compound 170],0.03 µM,0.022 µM,0.05 µM,0 (20 mg/kg)^7%,,,,
COc1cc(OC)c(NC(=O)c2ccc(Cc3c(OC)cc(C)c(Cl)c3C)o2)c(OC)c1 [Compound 299],0.29 µM,0.105 µM,0.08 µM,,1740 nM,1 h,2.4 h,72% (10 mg/kg)^10
COc1cc(OC)c(NC(=O)c2ccc(Cc3cc(-c4ccccc4)c(C)cc3C)o2)c(OC)c1 [Compound 302],0.22 µM,0.119 µM,0.167 µM,,,,,
Cc1cc2c(cc1Cc1ccc(C(=O)NCc3ccc(CNc4nccc(NCC5CCCO5)n4)cc3)o1)C(C)(C)CCC2(C)C (centres unmarked) [Compound 141],0.035 µM,0.064 µM,0.15 µM,,,,,
COc1cc(OC)c(NC(=O)c2ccc(Cc3cc(C(C)(C)C)ccc3OC)o2)c(OC)c1 [Compound 203],0.058 µM,0.062 µM,0.13 µM,,,,,
COCCCNc1ccnc(NCc2cccc(CNC(=O)c3ccc(Cc4cc5c(cc4C)C(C)(C)CCC5(C)C)o3)c2)n1 [Compound 153],0.011 µM,0.021 µM,0.12 µM,,,,,
COc1ccc(OC)c(NC(=O)c2ccc(Cc3cc4c(cc3C)C(C)(C)CCC4(C)C)o2)c1 [Compound 98],0.22 µM,0.084 µM,0.08 µM,,,,,
CCc1cccc(CC)c1NC(=O)c1ccc(Cc2cc3c(cc2C)C(C)(C)CCC3(C)C)o1 [Compound 86],0.51 µM,,8 µM,,,,,
Cc1cc2c(cc1Cc1ccc(C(=O)Nc3ccc(C(N)=O)cc3)o1)C(C)(C)CCC2(C)C [Compound 102],0.97 µM,,1.18 µM,,,,,
COc1cc(C)c(Cc2ccc(C(=O)NCc3cnc(C)cn3)o2)cc1OC [Compound 84],0.77 µM,,8 µM,,,,,
Cc1ccc(C)c(Cc2ccc(C(=O)NCc3cnc(C)cn3)o2)c1 [Compound 77],8.45 µM,,> 10 µM,,,,,
Cc1cc2c(cc1Cc1ccc(C(N)=O)o1)C(C)(C)CCC2(C)C [AXC- 06675],2.8 µM,,2 µM,,,,,
CCC(C)(C)c1ccc(OC)c(Cc2ccc(C(=O)Nc3c(OC)cccc3OC)o2)c1 [Compound 231],0.051 µM,0.024 µM,0.005 µM,,,,,
Cc1cc2c(cc1Cc1ccc(C(=O)NCc3cccc(CN)c3)o1)C(C)(C)CCC2(C)C [Compound 139],0.113 µM,0.15 µM,0.11 µM,,,,,
CCC(C)(C)c1ccc(OC)c(Cc2ccc(C(=O)Nc3c(OC)cc(OC)cc3OC)o2)c1 [Compound 232],0.0057 µM,0.009 µM,0.019 µM,,,,,
COC(CCCNC(=O)c1ccc(Cc2cc3c(cc2C)C(C)(C)CCC3(C)C)o1)OC [Compound 125],0.56 µM,1.05 µM,0.135 µM,,,,,
Cc1cc(C)nc(NS(=O)(=O)c2ccc(NC(=O)c3ccc(Cc4cc5c(cc4C)C(C)(C)CCC5(C)C)o3)cc2)n1 [Compound 97],1.69 µM,,1.7 µM,,,,,

# Other lines, results leading:
IC50 (rat GnRH receptor),IC50 (mouse GnRH receptor),IC50 (human GnRH receptor),"Fp.o. ([1]; rat male, p.o. 20 mg/kg, vehicle per footnote (DMSO/cremophor/saline))","Cmax [1, 2]","Tmax [1, 2]","half-life ([1]; female, rat, plasma, rat female)","Fp.o. ([1]; rat female, 5 mg/ml solution in 10% DMSO 10% cremophor 80% saline)",SMILES
1.49 µM,1.3 µM,0.315 µM,,,,,,Cc1cc2c(cc1Cc1ccc(C(=O)NCC3CCC(CNc4ncc(C#N)c(N)n4)CC3)o1)C(C)(C)CCC2(C)C (centres unmarked) [Compound 94]
0.95 µM,0.79 µM,0.12 µM,,,,,,Cc1cc2c(cc1Cc1ccc(C(=O)NCC3CCC(CNCc4cc(=O)[nH]c(=O)[nH]4)CC3)o1)C(C)(C)CCC2(C)C (centres unmarked) [Compound 91]
0.17 µM,0.22 µM,0.22 µM,,,,,,Cc1cc2c(cc1Cc1ccc(C(=O)NCC3CCN(c4nccc(NCC5CCCO5)n4)CC3)o1)C(C)(C)CCC2(C)C (centres unmarked) [Compound 128]
0.385 µM,0.57 µM,0.22 µM,,,,,,Cc1cc2c(cc1Cc1ccc(C(=O)NC[C@H]3CC[C@H](CNc4ccnc(NC[C@@H]5CCCO5)n4)CC3)o1)C(C)(C)CCC2(C)C [Compound 174]
3 µM,,1.81 µM,,,,,,Cc1cc2c(cc1Cc1ccc(C(=O)NC3CCN(c4nccc(NCC5CCCO5)n4)C3)o1)C(C)(C)CCC2(C)C (centres unmarked) [Compound 117]
0.25 µM,0.2 µM,0.022 µM,,,,,,Cc1cc2c(cc1Cc1ccc(C(=O)NCC3CCCC(CNC(=O)C(F)(F)F)C3)o1)C(C)(C)CCC2(C)C (centres unmarked) [Compound 105]
0.74 µM,0.71 µM,0.115 µM,,,,,,Cc1cc2c(cc1Cc1ccc(C(=O)NCC3CCC(CN)CC3)o1)C(C)(C)CCC2(C)C (centres unmarked) [Compound 75]
1.63 µM,1.57 µM,0.2 µM,,,,,,Cc1cc2c(cc1Cc1ccc(C(=O)NCC3CCCC(CNc4ncccn4)C3)o1)C(C)(C)CCC2(C)C (centres unmarked) [Compound 138]
5.3 µM,,0.88 µM,,,,,,Cc1cc2c(cc1Cc1ccc(C(=O)NCC3CCNCC3)o1)C(C)(C)CCC2(C)C [Compound 76]
1.74 µM,,0.63 µM,,,,,,Cc1cc2c(cc1Cc1ccc(C(=O)NCC3CCC(CNc4ncccn4)CC3)o1)C(C)(C)CCC2(C)C (centres unmarked) [Compound 111]
